In US12624354B2, “Methods and compositions for prime editing nucleotide sequences” (The Broad Institute, Inc., priority 2019, dated 2026):

Assays:
[1] = test system: different target sites in various cell lines; test: Efficiency of prime editors with truncated RT; type: cell-based
Source text: FIG. 75 provides a bar graph comparing the efficiency (i.e., “% of total sequencing reads with the specified edit or indels”) of PE2, PE2-trunc, PE3, and PE3-trunc over different target sites in various cell lines.
See FIG. 75, which provides a bar graph comparing the efficiency (i.e., “% of total sequencing reads with the specified edit or indels”) of PE2, PE2-trunc, PE3, and PE3-trunc over different target sites in various cell lines.

[2] = test system: 5′-Cy5-labeled dsDNA substrates; test: In vitro TPRT (prime editing) primer extension assay, denaturing urea PAGE; type: biochemical; conditions: non-nicked substrate, standard gRNA (gRNA_0, lane 3)
Procedure: All reactions are with M-MLV RT.
Then, the fluorescently labeled DNA substrate was added along with dNTPs and the RT enzyme. After 1 hour of incubation at 37° C., the reaction products were analyzed by denaturing urea-polyacrylamide gel electrophoresis (PAGE).
However, the DNA substrates are not pre-nicked in this set of experiments. […] The reaction products were analyzed by denaturing urea-polyacrylamide gel electrophoresis (PAGE).
Reactions were incubated at 37° C. for 1 hour, then analyzed by denaturing urea PAGE and visualized for Cy5 fluorescence.
Reactions were allowed to proceed at 37° C. for 1 hour prior to separation by denaturing urea PAGE and visualization by Cy5 fluorescence.

HEK cells = test: Npu intein-split prime editors, plasmid transfection, high-throughput sequencing; type: cell-based; conditions: HEK cells transfected with plasmids
Source text: This Example is focused on a PE fusion protein comprising the canonical SpCas9 (SEQ ID NO: 18). The split sites for other Cas9 proteins may be the corresponding same site, or may need to be optimized for each different Cas9 protein. In the instant Example, the prime editor was split between residues 1023 and 1024 of SpCas9 (SEQ ID NO: 18). This is referred to as the “1023/1024” split site.
Prime editors (PEs) exceed the AAV packaging capacity.
It was therefore determined whether mutation from the Cas9-native “SEQ” towards the Npu intein “CFN” sequence altered efficiency of prime editing.
Although associated, unspliced editors may be active, perturbations of the sterics of the prime editor resulting from incomplete splicing during initiation steps may affect editing outcomes.

Molecule: PE2-trunc: Cas9 (H840A) fused to a truncated M-MLV reverse transcriptase with D200N, T306K, W313F, T330P; SEQ ID NO: 765
- efficiency (% of total sequencing reads with the specified edit or indels) [1]: about as efficient as the prime editors comprising the non-truncated RT proteins

Molecule: Cas9 nickase: Cas9 nickase (SpyCas9 H840A mutant)
- cleavage of the DNA strand [2]: efficiently cleaves the DNA strand

B1: 1024-CFN: intein-split PE with Cas9 residues at 1024 mutated to the Npu intein CFN sequence (protein)
chain: MKRTADGSEFESPKKKRKVIKIATRKYLGKQNVYDIGVERDHNFALKNGFIASNCFNEIGKATAKYFFYSNIMNFFKTEITLANGEIRKRPLIETNGETGEIVWDKGRDFATVRKVLSMPQVNIVKKTEVQTGGFSKESILPKRNSDKLIARKKDWDPKKYGGFDSPTVAYSVLVVAKVEKGKSKKLKSVKELLGITIMERSSFEKNPIDFLEAKGYKEVKKDLIIKLPKYSLFELENGRKRMLASAGELQKGNELALPSKYVNFLYLASHYEKLKGSPEDNEQKQLFVEQHKHYLDEIIEQISEFSKRVILADANLDKVLSAYNKHRDKPIREQAENIIHLFTLTNLGAPAAFKYFDTTIDRKRYTSTKEVLDATLIHQSITGLYETRIDLSQLGGDSGGSSGGSSGSETPGTSESATPESSGGSSGGSSTLNIEDEYRLHETSKEPDVSLGSTWLSDFPQAWAETGGMGLAVRQAPLIIPLKATSTPVSIKQYPMSQEARLGIKPHIQRLLDQGILVPCQSPWNTPLLPVKKPGTNDYRPVQDLREVNKRVEDIHPTVPNPYNLLSGLPPSHQWYTVLDLKDAFFCLRLHPTSQPLFAFEWRDPEMGISGQLTWTRLPQGFKNSPTLFNEALHRDLADFRIQHPDLILLQYVDDLLLAATSELDCQQGTRALLQTLGNLGYRASAKKAQICQKQVKYLGYLLKEGQRWLTEARKETVMGQPTPKTPRQLREFLGKAGFCRLFIPGFAEMAAPLYPLTKPGTLFNWGPDQQKAYQEIKQALLTAPALGLPDLTKPFELFVDEKQGYAKGVLTQKLGPWRRPVAYLSKKLDPVAAGWPPCLRMVAAIAVLTKDAGKLTMGQPLVILAPHAVEALVKQPPDRWLSNARMTHYQALLLDTDRVQFGPVVALNPATLLPLPEEGLQHNCLDILAEAHGTRPDLTDQPLPDADHTWYTDGSSLLQEGQRKAGAAVTTETEVIWAKALPAGTSAQRAELIALTQALKMAEGKKLNVYTDSRYAFATAHIHGEIYRRRGWLTSEGKEIKNKDEILALLKALFLPKRLSIIHCPGHQKGHSAEARGNRMADQAARKAAITETPDTSTLLIENSSPSGGSKRTADGSEFEPKKKRK
- prime editing activity compared with full-length PE3 (HEK cells): recapitulates full-length PE3 activity
